Here are results for 3 molecules from ChEMBL document CHEMBL3817816, “Improvement of the pharmacological properties of amidated kyotorphin by means of iodination” (Medchemcomm, 2016).

For data set [1], the system named is Femur. In words: Drug uptake in Sprague-Dawley rat femur at 11 MBq, ip after 5 mins by gamma counting assay. The settings on record: in vivo. Format: ADME, organism-based.
Data set [2] deals with Liver. In words: Drug uptake in Sprague-Dawley rat liver at 11 MBq, ip after 10mins by gamma counting assay. Format: ADME, organism-based. The settings on record: in vivo.
Data set [3] relates to Blood. The data set can be described thus: Drug uptake in Sprague-Dawley rat blood at 11 MBq, ip after 10mins by gamma counting assay. The following applies: in vivo. Type of data set: ADME, organism-based.
Data set [4] can be described thus: Permeability across apical to basolateral side of mouse bEND.3 cells at 37 kBq/200 uL after 10 hrs by transwell assay relative to control. Format: ADME.
Data set [5] concerns Intestine. The data set can be described thus: Drug uptake in Sprague-Dawley rat intestine at 11 MBq, ip after 10mins by gamma counting assay. Type of data set: ADME, organism-based. The following applies: in vivo.
Data set [6] deals with Femur. In words: Drug uptake in Sprague-Dawley rat femur at 11 MBq, ip after 10mins by gamma counting assay. The following applies: in vivo. Type of data set: ADME, organism-based.
Data set [7] in a line: Octanol-PBS partition coefficient, log P of the compound at pH 7.4 by shake flask method. Format: physicochemical.
For data set [8], the system named is Spleen. The data set can be described thus: Drug uptake in Sprague-Dawley rat spleen at 11 MBq, ip after 10mins by gamma counting assay. The following applies: in vivo. Type of data set: ADME, organism-based.
Data set [9] deals with Spleen. The data set can be described thus: Drug uptake in Sprague-Dawley rat spleen at 11 MBq, ip after 5 mins by gamma counting assay. Type of data set: ADME, organism-based. The following applies: in vivo.
For data set [10], the system named is Lung. The data set can be described thus: Drug uptake in Sprague-Dawley rat lung at 11 MBq, ip after 10mins by gamma counting assay. Format: ADME, organism-based. The settings on record: in vivo.
In data set [11] the test system is Brain. In words: Drug uptake in Sprague-Dawley rat brain at 11 MBq, ip after 5 mins by gamma counting assay. Type of data set: ADME, organism-based. The settings on record: in vivo.
The subject of data set [12] is Muscle tissue. In words: Drug uptake in Sprague-Dawley rat muscle at 11 MBq, ip after 5 mins by gamma counting assay. The following applies: in vivo. Format: ADME, organism-based.
Data set [13] deals with Liver. The data set can be described thus: Drug uptake in Sprague-Dawley rat liver at 11 MBq, ip after 5 mins by gamma counting assay. The following applies: in vivo. Type of data set: ADME, organism-based.
For data set [14], the system named is Muscle tissue. In words: Drug uptake in Sprague-Dawley rat muscle at 11 MBq, ip after 10mins by gamma counting assay. Format: ADME, organism-based. The settings on record: in vivo.
Data set [15] relates to Liver. The data set can be described thus: Stability of compound in Sprague-Dawley rat liver homogenate assessed as remaining parent compound […] at 10 mins by RP-HPLC analysis. Type of data set: ADME. The following applies: iv.
The subject of data set [16] is Stomach. The data set can be described thus: Drug uptake in Sprague-Dawley rat stomach at 11 MBq, ip after 5 mins by gamma counting assay. Format: ADME, organism-based. The settings on record: in vivo.
Data set [17] concerns Thyroid gland. The data set can be described thus: Drug uptake in Sprague-Dawley rat thyroid at 11 MBq, ip after 5 mins by gamma counting assay. The settings on record: in vivo. Format: ADME, organism-based.
For data set [18], the system named is Heart. The data set can be described thus: Drug uptake in Sprague-Dawley rat heart at 11 MBq, ip after 5 mins by gamma counting assay. Type of data set: ADME, organism-based. The settings on record: in vivo.
Data set [19] is described as follows: Stability of compound in Sprague-Dawley rat serum assessed as remaining parent compound at 5 mins by RP-HPLC analysis. The settings on record: read-out: Stability. Type of data set: ADME.
Data set [20] deals with Intestine. In words: Drug uptake in Sprague-Dawley rat intestine at 11 MBq, ip after 5 mins by gamma counting assay. Format: ADME, organism-based. The settings on record: in vivo.
In data set [21] the test system is Kidney. In words: Stability of compound in Sprague-Dawley rat kidney homogenate assessed as remaining parent compound at 10 mins by RP-HPLC analysis. Type of data set: ADME, tissue-based. The following applies: tissue homogenate.
For data set [22], the system named is Brain. In words: Drug uptake in Sprague-Dawley rat brain at 11 MBq, ip after 10mins by gamma counting assay. Type of data set: ADME, organism-based. The settings on record: in vivo.
Data set [23] can be described thus: Stability of compound in saline at 11 kBq/uL up to 1 week at 4 degC by HPLC analysis. Format: physicochemical. The following applies: buffer, 168 h.
The test system of data set [24] is Kidney. In words: Drug uptake in Sprague-Dawley rat kidney at 11 MBq, ip after 5 mins by gamma counting assay. Format: ADME, organism-based. The following applies: in vivo.
For data set [25], the system named is Lung. The data set can be described thus: Drug uptake in Sprague-Dawley rat lung at 11 MBq, ip after 5 mins by gamma counting assay. The following applies: in vivo. Format: ADME, organism-based.
Data set [26] has as its system Rattus norvegicus. The data set can be described thus: Analgesic activity in Wistar Han rat assessed as time required to show maximal effect at 44.42 mg/kg, ip administered as single dose by hot plate test. Format: functional. (Thermal pain tests record how soon the animal reacts.)
For data set [27], the system named is Heart. In words: Drug uptake in Sprague-Dawley rat heart at 11 MBq, ip after 10mins by gamma counting assay. Format: ADME, organism-based. The following applies: in vivo.
Data set [28] deals with Stomach. In words: Drug uptake in Sprague-Dawley rat stomach at 11 MBq, ip after 10mins by gamma counting assay. Format: ADME, organism-based. The following applies: in vivo.
The test system of data set [29] is Blood. In words: Drug uptake in Sprague-Dawley rat blood at 11 MBq, ip after 5 mins by gamma counting assay. Format: ADME, organism-based. The settings on record: in vivo.
For data set [30], the system named is Thyroid gland. In words: Drug uptake in Sprague-Dawley rat thyroid at 11 MBq, ip after 10mins by gamma counting assay. Format: ADME, organism-based. The settings on record: in vivo.
Data set [31] deals with Kidney. The data set can be described thus: Drug uptake in Sprague-Dawley rat kidney at 11 MBq, ip after 10mins by gamma counting assay. Type of data set: ADME, organism-based. The settings on record: in vivo.
Data set [32] relates to Rattus norvegicus. In words: Analgesic activity in Wistar Han rat assessed as time required to show maximal effect at 56.47 mg/kg, ip administered as single dose by hot plate test. Type of data set: functional.
Data set [33] deals with Rattus norvegicus. The data set can be described thus: Analgesic activity in Wistar Han rat assessed as time required to show maximal effect at 5 mg/kg, ip by hot plate test. Format: functional.

Consider `N=C(N)NCCC[C@H](NC(=O)[C@@H](N)Cc1ccc(O)c([125I])c1)C(N)=O`, for which the Drug uptake in the data set with Femur [1] is recorded as 0.22 % ID/g; in the data set on Liver [2], 0.88 % ID/g; with Blood [3] it was 0.68 % ID/g; in the data set with Intestine [5], 1.06 % ID/g; in the data set with Femur [6], 0.27 % ID/g; in the data set with Spleen [8], 0.33 % ID/g. The Drug uptake was 1.1 % ID/g with Spleen [9]; 0.35 % ID/g in the data set on Lung [10]; 0.03 % ID/g in the data set with Brain [11]; 0.28 % ID/g with Muscle tissue [12]; 0.9 % ID/g in the data set on Liver [13]; 0.26 % ID/g in the data set with Muscle tissue [14]. Further, the Drug uptake is listed as 0.48 % ID/g in the data set on Stomach [16]; 2.7 % ID/g in the data set on Thyroid gland [17]; 0.26 % ID/g in the data set on Heart [18]; 1.6 % ID/g with Intestine [20]; 0.07 % ID/g in the data set on Brain [22]; 0.5 % ID/g with Kidney [24]. Further, the Drug uptake in the data set on Lung [25] worked out at 0.5 % ID/g; with Heart [27], 0.32 % ID/g; with Stomach [28] it was 0.98 % ID/g; in the data set on Blood [29], 0.5 % ID/g; in the data set with Thyroid gland [30], 0.7 % ID/g; with Kidney [31] it was 0.57 % ID/g. For the same molecule, in data set [4], the “fold change (FC)” value is 0.49. The logD – broadly, lipophilicity at a set pH, counting ionised and neutral species – in data set [7] was -1.8. Also, the Stability result in the data set on Liver [15] was “Unstable”; in the data set on Kidney [21] it was “Unstable”; in [23], “Stable”. Besides, the remaining at 5 min in data set [19] turned out to be 72.5%. The Time with Rattus norvegicus [26] is given as 30 min.

For `N=C(N)NCCC[C@H](NC(=O)[C@@H](N)Cc1cc([125I])c(O)c([125I])c1)C(N)=O`, the Time in the data set on Rattus norvegicus [32] is 30 min.

For `N=C(N)NCCC[C@H](NC(=O)[C@@H](N)Cc1ccc(O)cc1)C(N)=O`, in the data set on Rattus norvegicus [33], the Time stood at 15 min.
